According to patent publication US8586548B2, “NAP alpha-aminoisobutyric acid analog with neuroprotective activity” (Ramot at Tel-Aviv University, Ltd., priority 2009, dated 2013):
Non-standard residues stand in square brackets, D forms with d. No end group written: not given here. Aib = CC(C)(N)C(=O)O

How the values were obtained:
[1] = test system: cerebral cortical cultures derived from newborn rats; experiment: Neuronal survival in cerebral cortical cultures treated with beta-amyloid peptide (1-42); assay type: cell-based, rat; conditions: for protection of neurons against neurotoxicity of beta-amyloid peptide 1-42 (neuronal cell numbers): 2.5 μM beta-amyloid peptide (1-42), peptide 10^−16M to 10^−10M, p<0.001, FIG. 1; for neuroprotective activity compared with unmodified NAP: FIG. 1 compared with FIG. 2, 2.5 micromolar beta amyloid peptide
Protocol: All peptides were dissolved in distilled sterile water to a concentration of 1 mM and then diluted in water in 1:10 steps up to the required concentration. The beta-amyloid peptide (1-42) was obtained from American Peptides, Calif., USA.
Cerebral cortical cultures derived from newborn rats were used for neuron survival assays. For mixed neuroglial cultures, neurons 300,000 cells/35 mm dish were seeded on 8-day-old astrocytes prepared as described (Bassan et al., supra (1999); Brenneman et al., supra (2004)). Cells were allowed to grow for one week at 37° C. 10% CO2 before experiments were performed. Four days after neuronal plating, cultures were given their respective treatment and assayed for neuronal survival after an additional 5 day incubation period.
The culture medium was removed and cells were washed twice with phosphate buffered saline (PBS). 1.5 ml of 3% glutaraldehyde (Fluka Biochemika, Steinheim, Germany) in 0.1 M cacodylic acid pH 7.2 (Fluka Biochemika, Steinheim, Germany) was added for two hours. The cells were then washed with PBS and 2 ml of 0.15 M cacodylic acid pH 7.2 was added. Neuronal identity was established by morphological criteria using an Olympus CK2 light microscope (Olympus, Japan) with a X40 lens. Fifty fields were counted in each dish (Zemlyak et al., supra (2000)).
The number of surviving neurons was assessed in cerebral cortical cultures derived from newborn rats using the beta-amyloid peptide (1-42), an Alzheimer's disease-associated toxin, at 2.5 μM. Alpha-aminoisobutric NAP was used at the following concentrations: 10^−16M, 10^−15M, 10^−12M, 10^−10M. […] Cell counts totaled>100% of control, because the treatment prevents neuronal cell death that occurred naturally in the cultures (10-20%), as observed before (Bassan et al., supra (1999)). […] This is an unexpected finding in view of previous reports that describe the SIP motif as essential for NAP neuroprotection (Wilkemeyer et al., Proc Natl Acad Sci USA, 100(14):8543-8 (2003)).

[2] = test system: ADNP heterozygous male mice; experiment: Passive avoidance test; assay type: in vivo, mouse
Protocol: The heterozygous ADNP mice were generated as before (Pinhasov et al., Brain Res. Dev. Brain Res. 2003, 144:83-90; and Vulih-Shultzman et al., J Pharmacol Exp Ther. 2007, 323(2):438-49). To avoid any variability in results associated with the estrous cycle in females, only ADNP^+/− male mice are use for behavioral experiments.
Iso-NAP (NAXaaVSIXaaQ; SEQ ID NO:1) was dissolved in a vehicle solution, in which each milliliter included 7.5 mg of NaCl, 1.7 mg of citric acid monohydrate, 3 mg of disodium phosphate dihydrate, and 0.2 mg of benzalkonium chloride solution (50%). Iso-NAP or vehicle solution (DD) was administered to mice handheld in a semi-supine position with nostrils facing the investigator. A pipette tip was used to administer 2.5 μl/each nostril. The mouse was handheld until the solution is entirely absorbed. Nasal Iso-NAP application was performed daily, once a day, for 2 weeks for the Morris water maze test. In the 2nd week, Iso-NAP was applied 1 h before the daily test (see below), which was conducted for 5 consecutive days. In the passive avoidance test, all mice were treated for a total of 7 days, on the 7th day of treatment the test began. Iso-NAP was applied 1 h before the test.
The passive avoidance task is a fear-motivated avoidance task based on the mouse conflict between avoiding the light stimulus and approaching the dark chamber in which a painful shock is given. The mouse learns to refrain from stepping through a door to an apparently safer but previously punished dark compartment. The latency to refrain from crossing into the punished compartment serves as an index of the ability to avoid, and allows memory to be assessed (Johns Hopkins University, Department of Psychological and Brain Sciences, website: nbc.jhu.edu/protocols/PassiveAvoidanceProtocol.aspx). […]
The experiment is carried out for three days. […] The time to enter the dark compartment is recorded. […] The door is opened after 30 seconds, and the time it takes the mouse to enter the dark chamber is recorded. […] After 30 seconds (T0), the door is opened and the latency to enter the dark chamber is recorded. […]

[3] = listed as Alpha-aminoisobutric NAP

Substance: NAXaaVSIXaaQ (NA[Aib]VSI[Aib]Q) [Alpha-aminoisobutyric NAP, both prolines of NAP substituted]
- cell counts ([1]; 2.5 μM beta-amyloid peptide (1-42) plus peptide): > 100 % of control
- protection of neurons against neurotoxicity of beta-amyloid peptide 1-42 (neuronal cell numbers) [1, 3]: protected against neurotoxicity associated with the beta-amyloid peptide 1-42
- protection of neurons against neurotoxicity of beta-amyloid peptide 1-42 (neuronal cell numbers) ([1]; listed as alpha-aminoisobutric NAP): confers protection of neurons
- neuroprotective activity compared with unmodified NAP [1]: increased neuroprotective activity
- neuroprotective activity compared with unmodified NAP [1, 3]: increased activity
- latency to enter the dark room at T0 and T30 vs T-trial ([2]; 2 μg/mice intranasal, P<0.05): entered the dark room significantly slower than on the T-trial
- effect on learning and memory (conclusion) ([2]; 2 μg/mice, conclusion from Morris water maze and passive avoidance tests): seems to affect positively learning and memory
- latency to enter the dark room ([2]; 30 μg/mice intranasal): entered the dark room faster than the NAP2 group
